Laboratory results as given in ChEMBL document CHEMBL1201862, “PubChem BioAssay data set” (2004).
Counter-ions that a name gives are not always drawn. The source made the active and inactive calls.

How the values were obtained:
Cytochrome P450 2C19 = Cytochrome P450 2C19 (Homo sapiens, UniProt P33261); assay: Cytochrome panel assay with activity outcomes. Panel member name: p450-cyp2c19 Compounds with AC50 equal or less than 10 uM are considered active; format: functional
Protein RecA = biological target: T1, Protein RecA (Mycobacterium tuberculosis, UniProt P9WHJ3); assay: Fluorescence Cell-Free Homogeneous Dose Retest to Identify Inhibitors of RecA-Intein Splicing Activity. [Related pubchem assays (depositor defined):AID2097, AID2223, AID489010, AID492950]; format: functional
T1 sequence (P9WHJ3 whole entry): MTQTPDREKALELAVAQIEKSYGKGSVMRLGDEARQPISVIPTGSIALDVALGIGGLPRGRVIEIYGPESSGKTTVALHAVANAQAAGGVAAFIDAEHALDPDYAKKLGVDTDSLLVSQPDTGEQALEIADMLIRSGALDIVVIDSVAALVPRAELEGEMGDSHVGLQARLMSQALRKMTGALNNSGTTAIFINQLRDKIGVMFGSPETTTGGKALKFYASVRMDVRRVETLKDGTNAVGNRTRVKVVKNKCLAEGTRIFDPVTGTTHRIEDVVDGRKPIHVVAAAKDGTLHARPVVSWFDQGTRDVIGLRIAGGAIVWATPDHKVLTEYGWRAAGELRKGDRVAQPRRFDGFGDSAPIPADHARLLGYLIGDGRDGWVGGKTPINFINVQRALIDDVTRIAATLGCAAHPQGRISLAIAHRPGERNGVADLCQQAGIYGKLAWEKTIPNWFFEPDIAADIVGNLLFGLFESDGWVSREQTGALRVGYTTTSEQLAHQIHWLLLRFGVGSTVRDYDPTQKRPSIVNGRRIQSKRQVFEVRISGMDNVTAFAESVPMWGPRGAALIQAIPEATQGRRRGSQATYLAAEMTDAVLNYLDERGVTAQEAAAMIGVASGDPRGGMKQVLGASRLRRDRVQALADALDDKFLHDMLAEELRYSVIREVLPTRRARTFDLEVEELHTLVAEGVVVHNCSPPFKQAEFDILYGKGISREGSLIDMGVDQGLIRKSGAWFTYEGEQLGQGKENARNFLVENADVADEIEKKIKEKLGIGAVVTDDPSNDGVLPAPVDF

[1] = biological target: T2, Replicative DNA helicase DnaB (Mycobacterium tuberculosis, UniProt P9WMR3); assay: DnaB intein splicing inhibitors, dose response, biochemical, cell-free fluorescence (AID 449749); format: functional
T2 sequence (P9WMR3 whole entry): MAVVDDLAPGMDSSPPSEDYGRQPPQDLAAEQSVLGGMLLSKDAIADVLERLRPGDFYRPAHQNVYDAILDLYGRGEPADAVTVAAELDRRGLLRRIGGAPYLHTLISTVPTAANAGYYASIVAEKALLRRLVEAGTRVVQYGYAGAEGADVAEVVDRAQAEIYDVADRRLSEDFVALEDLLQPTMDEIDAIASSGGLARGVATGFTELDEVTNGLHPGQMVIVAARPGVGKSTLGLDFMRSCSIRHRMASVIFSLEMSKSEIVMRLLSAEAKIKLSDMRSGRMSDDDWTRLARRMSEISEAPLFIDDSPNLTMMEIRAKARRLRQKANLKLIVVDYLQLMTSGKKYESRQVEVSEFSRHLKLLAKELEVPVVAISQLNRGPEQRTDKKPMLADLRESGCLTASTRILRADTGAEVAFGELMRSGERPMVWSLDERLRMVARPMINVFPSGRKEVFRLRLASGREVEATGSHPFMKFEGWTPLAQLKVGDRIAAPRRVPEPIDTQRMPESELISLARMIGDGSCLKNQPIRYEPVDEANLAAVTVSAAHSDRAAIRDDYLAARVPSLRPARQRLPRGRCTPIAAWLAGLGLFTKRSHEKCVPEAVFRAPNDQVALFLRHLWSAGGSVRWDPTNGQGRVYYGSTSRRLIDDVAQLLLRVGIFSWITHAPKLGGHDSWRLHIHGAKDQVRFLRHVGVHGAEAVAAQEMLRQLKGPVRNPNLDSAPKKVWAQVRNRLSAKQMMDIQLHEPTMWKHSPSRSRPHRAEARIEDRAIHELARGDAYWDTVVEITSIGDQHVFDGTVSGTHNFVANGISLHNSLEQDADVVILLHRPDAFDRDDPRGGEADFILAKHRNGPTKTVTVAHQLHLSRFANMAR

[2] = biological target: Luciferin 4-monooxygenase (Photinus pyralis, UniProt P08659); assay: firefly luciferase enzyme inhibitors, dose response, biochemical, luminescence (AID 1891)
[3] = Luminescence Cell-Based Dose Confirmation HTS to Identify Inhibitors of Platelet Dense Granule Release. [Related pubchem assays: 1663 (Primary HTS), 1678 (Summary of Project)]; format: functional
[4] = HEp-2 cell cytotoxicity, dose response, cytotoxicity control for RSV inhibitor project, HTS (AID 2410); format: functional; details: human respiratory syncytial virus
[5] = cytotoxicity toward NIH3T3 fibroblasts, dose response, counter-screen, cell-based, ATP luminescence, mouse fibroblasts (AID 2010); format: functional;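 further: cells exposed to compound for about 90 hours before reading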
[6] = Luminescence Cell-Based Dose Retest to Confirm Inhibitors of Cancer Stem Cells. [Related pubchem assays (depositor defined):AID2717, AID2721]; format: functional; details: Homo sapiens
[7] = inhibitors of intracellular T. cruzi replication, confirmation, NIH3T3 host cells, beta-gal luminescence (AID 2044); format: functional, cell-based;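 further: intracellular parasites grown in NIH/3T3 mouse fibroblasts as host cells; luminescent beta-galactosidase reporter signal from transgenic T. cruzi replicating inside host cells; inhibitors lower the luminescence signal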
Cytochrome P450 2C9 = Cytochrome P450 2C9 (Homo sapiens, UniProt P11712)
Cytochrome P450 3A4 = Cytochrome P450 3A4 (Homo sapiens, UniProt P08684);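 further: CYP3A4 tested as one member of a cytochrome P450 panel screen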
INS1 = assay: beta cell apoptosis inhibitors, cytokine rescue, dose response, luminescence, retest (AID 449756); format: functional, cell-based; details: Rattus norvegicus;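 further: cell death triggered by IL-1 beta plus TNF-alpha plus IFN-gamma mixture; protective hits raise ATP signal compared with cytokine alone wells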

Sequence of Luciferin 4-monooxygenase (P08659 whole entry): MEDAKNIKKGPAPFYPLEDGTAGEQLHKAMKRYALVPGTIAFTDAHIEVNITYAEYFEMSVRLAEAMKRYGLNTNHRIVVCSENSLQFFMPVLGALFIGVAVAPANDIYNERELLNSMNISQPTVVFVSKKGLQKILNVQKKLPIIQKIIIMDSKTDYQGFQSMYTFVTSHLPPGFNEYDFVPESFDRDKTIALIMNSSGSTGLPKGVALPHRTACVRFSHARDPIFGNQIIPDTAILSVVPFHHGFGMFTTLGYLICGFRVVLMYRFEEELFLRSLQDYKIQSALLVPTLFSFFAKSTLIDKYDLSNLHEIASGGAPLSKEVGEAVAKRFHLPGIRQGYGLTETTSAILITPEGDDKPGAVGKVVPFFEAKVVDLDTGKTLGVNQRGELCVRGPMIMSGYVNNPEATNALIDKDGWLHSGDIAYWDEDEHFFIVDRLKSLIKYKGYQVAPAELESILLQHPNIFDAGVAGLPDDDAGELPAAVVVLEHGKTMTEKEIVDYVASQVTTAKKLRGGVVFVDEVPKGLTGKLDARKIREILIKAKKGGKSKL
Sequence of Cytochrome P450 2C19 (P33261 whole entry): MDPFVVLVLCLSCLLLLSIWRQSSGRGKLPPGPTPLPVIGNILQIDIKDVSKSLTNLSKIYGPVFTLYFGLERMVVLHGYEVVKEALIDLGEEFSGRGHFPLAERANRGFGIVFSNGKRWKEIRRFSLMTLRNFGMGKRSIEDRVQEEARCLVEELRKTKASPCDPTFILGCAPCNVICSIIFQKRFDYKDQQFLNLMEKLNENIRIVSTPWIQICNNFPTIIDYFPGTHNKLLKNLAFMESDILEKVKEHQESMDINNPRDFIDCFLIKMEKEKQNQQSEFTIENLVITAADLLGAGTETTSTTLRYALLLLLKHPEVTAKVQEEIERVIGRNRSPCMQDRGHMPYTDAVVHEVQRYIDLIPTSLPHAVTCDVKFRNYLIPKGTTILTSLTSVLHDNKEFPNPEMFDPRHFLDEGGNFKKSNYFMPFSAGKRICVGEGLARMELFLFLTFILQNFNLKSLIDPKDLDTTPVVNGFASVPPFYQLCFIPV
Sequence of Cytochrome P450 3A4 (P08684 whole entry): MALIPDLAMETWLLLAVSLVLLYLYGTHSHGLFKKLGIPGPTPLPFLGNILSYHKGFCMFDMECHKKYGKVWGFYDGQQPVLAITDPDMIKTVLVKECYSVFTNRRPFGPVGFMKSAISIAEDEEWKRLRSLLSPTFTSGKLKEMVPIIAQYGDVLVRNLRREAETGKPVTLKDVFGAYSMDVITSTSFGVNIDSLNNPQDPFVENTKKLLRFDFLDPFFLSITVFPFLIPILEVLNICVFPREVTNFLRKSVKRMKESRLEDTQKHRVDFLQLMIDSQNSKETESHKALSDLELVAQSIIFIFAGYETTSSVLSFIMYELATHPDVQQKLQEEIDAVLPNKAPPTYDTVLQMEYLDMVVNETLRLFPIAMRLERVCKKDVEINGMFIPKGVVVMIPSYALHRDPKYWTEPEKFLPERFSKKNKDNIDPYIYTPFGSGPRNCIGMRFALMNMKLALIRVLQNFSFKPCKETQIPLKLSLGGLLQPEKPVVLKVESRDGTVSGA
Sequence of Cytochrome P450 2C9 (P11712 whole entry): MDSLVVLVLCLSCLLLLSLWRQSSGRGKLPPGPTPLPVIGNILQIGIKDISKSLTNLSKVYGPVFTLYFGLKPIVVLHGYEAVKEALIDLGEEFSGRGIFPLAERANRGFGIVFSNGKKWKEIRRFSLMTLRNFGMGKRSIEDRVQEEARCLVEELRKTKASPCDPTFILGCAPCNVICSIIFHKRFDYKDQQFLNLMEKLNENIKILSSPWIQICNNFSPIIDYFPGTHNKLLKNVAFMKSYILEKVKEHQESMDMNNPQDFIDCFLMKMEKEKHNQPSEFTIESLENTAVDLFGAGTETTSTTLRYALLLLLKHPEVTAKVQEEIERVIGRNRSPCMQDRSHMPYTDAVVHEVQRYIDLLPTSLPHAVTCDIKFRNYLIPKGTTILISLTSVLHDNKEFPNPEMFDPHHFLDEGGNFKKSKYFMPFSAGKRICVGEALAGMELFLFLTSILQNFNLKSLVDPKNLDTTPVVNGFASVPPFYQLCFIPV

CCOC(=O)c1cn(-c2nc(-c3ccc(Cl)cc3)cs2)c2c(F)c(N3CC(C)OC(C)C3)c(F)cc2c1=O (stereo not drawn)
AC50 (Cytochrome P450 2C19; read-out: AC50): 17.8 µM (inconclusive)

O=C(Oc1ccc(N(C(=O)c2ccncc2)S(=O)(=O)c2ccc(Cl)cc2)cc1)c1ccncc1
EC50 (Protein RecA): 16.4 µM (active) | AC50 [1]: 9.26 µM (active)

COCCN(C(=O)COC(=O)CCc1nc2ccccc2s1)c1c(N)n(Cc2ccccc2)c(=O)[nH]c1=O
EC50 [2]: > 112 µM (not active) | EC50 [3]: > 112 µM (not active)

CCCNC(=O)c1c(N)n(Cc2ccco2)c2nc3ccccc3nc12
CC50 [4]: 29.8 µM (active)

COc1nc(C(=N)NO)nc(N2CCCCC2)n1
AC50 (Cytochrome P450 2C19; read-out: AC50): 39.8 µM (inconclusive)

Cc1cc(C)n(C(=O)c2cccc(S(=O)(=O)N3CCCCC3)c2)n1
EC50 [2]: > 112 µM (not active) | EC50 [3]: > 112 µM (not active)

CCOC(=O)c1c(NC(=O)CSc2nc3cc(C)ccc3[nH]2)sc2c1CC(C)(C)NC2(C)C
EC50 [5]: 18.6 µM (active) | AC50 [6]: 7.46 µM (active) | EC50 [7]: 0.855 µM (active)

O=c1nc(-c2ccccc2)n(-c2ccccc2)c2ncccc12
AC50 (Cytochrome P450 2C19; read-out: AC50): 22.4 µM (inconclusive)

CCn1c(S)nnc1-c1ccoc1C
AC50 (Cytochrome P450 2C19; read-out: AC50): 28.2 µM (inconclusive) | AC50 (Cytochrome P450 2C9): 31.6 µM (inconclusive)

Cc1nc2cnc(Oc3ccccc3)nc2n(-c2ccccc2)c1=O
AC50 (Cytochrome P450 3A4): 25.1 µM (inconclusive) | AC50 (Cytochrome P450 2C9): 25.1 µM (inconclusive)

COC(=O)[C@@]1(Cc2ccc(OC)cc2)[C@@H]2C(=CC(=O)[C@H]2CC(=O)C(=O)N(C)C)CN1C(=O)c1ccccc1
AC50 (Cytochrome P450 3A4): 2.51 µM (inconclusive) | AC50 (Cytochrome P450 2C9): 25.1 µM (inconclusive)

COc1ccc(-c2[nH]nc3c2C(c2ccncc2)C(C#N)=C(N)O3)cc1 (stereo not drawn)
EC50 (Protein RecA): 2.26 µM (active) | AC50 [1]: 8.02 µM (active)

CC1CCCN(S(=O)(=O)c2ccc(NC(=O)c3cccc(-n4cnnn4)c3)cc2)C1 (stereo not drawn)
CC50 [4]: 16.4 µM (active)

Cc1ccccc1-c1nc(N(C)Cc2ccco2)c2ccccc2n1
AC50 (Cytochrome P450 3A4): 25.1 µM (inconclusive)

FC(F)(F)c1nnc(-c2ccccc2)nc1Oc1ccc(Cl)cc1Cl
EC50 (Protein RecA): 0.481 µM (active) | CC50 [4]: 31.4 µM (active) | AC50 [1]: 1.44 µM (active)

Sc1nnc(-c2ccncc2)n1CC1CCCO1 (stereo not drawn)
AC50 (Cytochrome P450 2C19; read-out: AC50): 31.6 µM (inconclusive) | AC50 (Cytochrome P450 3A4): 22.4 µM (inconclusive) | AC50 (Cytochrome P450 2C9): 28.2 µM (inconclusive)

COC(=O)c1ccc(/C=C/c2c(-c3ccc(OC)cc3)oc3ccc(N4CCOCC4)cc23)cc1
AC50 [6]: 2 µM (active)

Cc1ccc(-c2nc(Nc3ccc(N4CCOCC4)cc3)c3ccccc3n2)cc1
CC50 [4]: 18.6 µM (active)

O=C(/C=C/c1ccco1)NCC1OCCc2ccccc21 (stereo not drawn)
AC50 [6]: > 195 µM (inactive)

CCOC(=O)CSc1ncc(OC)c(Sc2ccc(Cl)cc2)n1
AC50 (Cytochrome P450 3A4): 25.1 µM (inconclusive)

C[Se]C[C@@H](N)C(=O)O
AC50 (Cytochrome P450 2C19): inconclusive | AC50 (Cytochrome P450 3A4): 1.26 µM (inconclusive)

COc1cc2cc(CN(CCCO)S(=O)(=O)c3ccccc3Cl)c(O)nc2cc1OC
AC50 (Cytochrome P450 2C19; read-out: AC50): 39.8 µM (inconclusive)

O=C(Nc1ccc(S(=O)(=O)NCc2ccco2)cc1)c1ccc(F)cc1
EC50 [2]: > 112 µM (not active) | EC50 [3]: > 112 µM (not active)

Cc1cc(C(=O)CSc2ccc(F)cc2)cc(C)c1O
CC50 [4]: 22 µM (active)

COc1cccc(-c2nn(-c3ccccc3)cc2/C=C\C(=O)c2cccs2)c1
CC50 [4]: 24.3 µM (active)

N=C1O[C@@H](c2c[nH]c3ccc(OCc4ccccc4)cc23)C(O)=C1O
AC50 (Cytochrome P450 2C19; read-out: AC50): 6.31 µM (inconclusive) | AC50 (Cytochrome P450 3A4): 3.16 µM (inconclusive)

CCOC(=O)c1c(CC(C)C)csc1NC=O
AC50 (Cytochrome P450 3A4): 22.4 µM (inconclusive)

CCOC(=O)C1CCCN(C(=O)C2CCN(S(=O)(=O)N3CCC4(CC3)OCCO4)CC2)C1 (stereo not drawn)
AC50 (Cytochrome P450 2C19; read-out: AC50): 35.5 µM (inconclusive) | AC50 (Cytochrome P450 3A4): 20 µM (inconclusive)

CCNc1ncc2nc(CCc3ccccc3)c(=O)n(CCOC)c2n1
AC50 (Cytochrome P450 3A4): 15.8 µM (inconclusive)

CCC(C)OC(=O)C1=C(C)OC23OC(N)=C(C#N)C12C(=O)c1ccccc13 (stereo not drawn)
EC50 [2]: > 112 µM (not active) | EC50 [3]: > 112 µM (not active)

Cc1ccc(S(=O)(=O)Nc2ccc(C(OC(=O)c3ccccc3[N+](=O)[O-])(C(F)(F)F)C(F)(F)F)cc2)cc1
AC50 (INS1): 14.3 µM (active) | AC50 [6]: 6.11 µM (active)

O=C(c1ccccc1NS(=O)(=O)c1cccc([N+](=O)[O-])c1)N1CCOCC1
AC50 (Cytochrome P450 3A4): 17.8 µM (inconclusive) | AC50 (Cytochrome P450 2C9): 7.94 µM (inconclusive)

C#CCOc1ccc(OC)cc1C(c1c(C)n[nH]c1O)c1c(C)n[nH]c1O
EC50 (Protein RecA): 0.187 µM (active) | AC50 [1]: 0.405 µM (active)

C[C@H](CO)N1C[C@H](C)[C@H](CN(C)Cc2ccc(-c3ccccc3)cc2)Oc2ccc(NS(=O)(=O)c3ccccc3)cc2CC1=O
AC50 [6]: 5.07 µM (active)

Cc1cccc(/N=C2\C(Cl)=C(O)OC2OC(=O)c2ccco2)c1 (stereo not drawn)
EC50 (Protein RecA): 12.9 µM (active) | AC50 [1]: 13.8 µM (active)

CCOc1ccc(/C=N/NC(=O)c2ccoc2C)cc1OC
EC50 [2]: 28.3 µM (active) | EC50 [3]: 6.04 µM (active)

O=C(Nc1ccccc1C(=O)N/N=C/c1ccco1)c1ccc(Cl)cc1
EC50 [2]: 0.192 µM (active) | EC50 [3]: 10.9 µM (active)

CC(/C=C/c1ccco1)=N/NC(=O)c1ccccc1Cl
AC50 (Cytochrome P450 2C19; read-out: AC50): 39.8 µM (inconclusive) | AC50 (Cytochrome P450 3A4): 31.6 µM (inconclusive)

Cn1cc(/C=N/n2cnc3sc4c(c3c2=O)CCCC4)c2ccccc21
AC50 (Cytochrome P450 3A4): 22.4 µM (inconclusive) | AC50 (Cytochrome P450 2C9): 39.8 µM (inconclusive)

CCc1[nH]nc2c1C(Cc1ccccc1)C(C#N)=C(N)O2 (stereo not drawn)
EC50 (Protein RecA): 6.37 µM (active) | AC50 [1]: 22.3 µM (active)

Cc1c(O)cccc1C(=O)N[C@@H](CSc1ccccc1)[C@H](O)CN1C[C@H]2CCCC[C@H]2C[C@H]1C(=O)NC(C)(C)C [NELFINAVIR MESYLATE]
AC50 [6]: 4.22 µM (active)
